Laboratory results: US9023789B2, “Amylin analogs and pharmaceutical compositions thereof” (Novo Nordisk A/S, priority 2012, dated 2015)
pIC50: −log10 of the molar value. In brackets after ≈: the same amount, converted by molar mass. Like-named read-outs stand apart in the source and are kept apart here. Numbered stars: 1 amine (or outer) side, 2 acyl side, 3 side chain; on linkers, the order of the positions; unused ones are H or OH. Bridge positions count the residues as written; N and C are the ends. Side chains are listed from the residue outwards. Peptide text beside a SMILES is read from it. * marks the point of attachment. C20 diacid = O=C(O)CCCCCCCCCCCCCCCCCCC(=O)*; γGlu = O=C(O)[C@H](CCC(=O)[*:2])N[*:1]; AEEA = NCCOCCOCC(=O)O

Experiments:
[1] = ASSAY (III) ThT fibrillation assay for physical stability; assay type: physicochemical
Method in brief: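 Formulations with 1 μM ThT, pH adjusted as required, incubated at 37 °C with 960 rpm orbital shaking; fluorescence (ex 444/em 485 nm) read every 20 min. Fibrillation reported as mean ThT fluorescence ± SD of 4–8 replicates at time points; polypeptide concentration measured by reverse-phase HPLC before and after, post-centrifugation.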

[2] = ASSAY (IV) determination of solubility; assay type: physicochemical
Method in brief: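 Polypeptide stock in water ([…]) was mixed 1:1 with 100 mM buffers: glycylglycine at pH 3.0, 4.0, 5.0 and bistrispropane at pH 6.0, 6.5, 7.0, 7.5, 8.0. After 18 hours at room temperature, samples were centrifuged and polypeptide concentration measured by UPLC.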

[3] = biological target: T1, rat calcitonin receptor (Rattus norvegicus, UniProt P32214); experiment: ASSAY (VIII) binding to the rat calcitonin receptor; settings: Table 7, read-out: rCTR bind IC50
T1 construct: expressed in transfected cells; host or cells: BHK tk'ts 13 (transient, FuGENE 6), membranes
T1 sequence (P32214 25-479 isoform P32214-2 limits assumed): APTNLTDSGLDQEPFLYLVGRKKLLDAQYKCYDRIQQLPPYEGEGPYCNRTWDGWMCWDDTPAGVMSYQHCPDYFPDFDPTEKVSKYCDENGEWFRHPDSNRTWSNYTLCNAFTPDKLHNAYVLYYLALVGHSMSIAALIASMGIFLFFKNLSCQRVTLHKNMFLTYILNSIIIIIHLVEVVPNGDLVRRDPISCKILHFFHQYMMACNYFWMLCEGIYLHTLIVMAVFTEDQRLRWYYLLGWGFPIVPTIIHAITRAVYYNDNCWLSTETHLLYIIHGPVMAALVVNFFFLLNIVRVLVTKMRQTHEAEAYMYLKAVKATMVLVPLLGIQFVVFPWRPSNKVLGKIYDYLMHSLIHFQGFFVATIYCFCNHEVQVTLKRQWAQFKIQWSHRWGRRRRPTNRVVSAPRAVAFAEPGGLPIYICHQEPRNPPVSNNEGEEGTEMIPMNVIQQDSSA
Method in brief: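 Transfect BHK tk′ts 13 cells transiently with rat calcitonin receptor, culture in DMEM containing 10% FBS, collect cells about 48 hours later, then prepare membranes.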

[4] = bistrispropane buffer, pH 6.5, read-out: Solubility pH 6.5 Concentration
[5] = bistrispropane buffer, pH 7.5, read-out: Solubility pH 7.5 Concentration
[6] = bistrispropane buffer, pH 6.0, read-out: Solubility pH 6.0 Concentration
[7] = bistrispropane buffer, pH 7.0, read-out: Solubility pH 7.0 Concentration
[8] = bistrispropane buffer, pH 8.0, read-out: Solubility pH 8.0 Concentration
[9] = glycylglycine buffer, pH 3.0, read-out: Solubility pH 3.0 Concentration
[10] = glycylglycine buffer, pH 4.0, read-out: Solubility pH 4.0 Concentration
[11] = glycylglycine buffer, pH 5.0, read-out: Solubility pH 5.0 Concentration

Row | SMILES | ThT pH 4.0 lag time (h) [1] [h] | solubility at 18 h ([2]; pH 3.0, read-out: Solubility pH 3.0 Concentration) [µM] | solubility at 18 h ([2]; pH 4.0, read-out: Solubility pH 4.0 Concentration) [µM] | solubility at 18 h ([2]; pH 5.0, read-out: Solubility pH 5.0 Concentration) [µM] | solubility at 18 h ([2]; pH 6.0, read-out: Solubility pH 6.0 Concentration) [µM] | solubility at 18 h ([2]; pH 6.5, read-out: Solubility pH 6.5 Concentration) [µM] | solubility at 18 h ([2]; pH 7.0, read-out: Solubility pH 7.0 Concentration) [µM] | solubility at 18 h ([2]; pH 7.5, read-out: Solubility pH 7.5 Concentration) [µM] | solubility at 18 h ([2]; pH 8.0, read-out: Solubility pH 8.0 Concentration) [µM] | pIC50 [3] | solubility at 18 h [2, 4] [µM] | solubility at 18 h [2, 5] [µM] | solubility at 18 h [2, 6] [µM] | solubility at 18 h [2, 7] [µM] | solubility at 18 h [2, 8] [µM] | solubility at 18 h [2, 9] [µM] | solubility at 18 h [2, 10] [µM] | solubility at 18 h [2, 11] [µM]
1 | CC[C@H](C)[C@H](NC(=O)[C@H](C)NC(=O)CNC(=O)[C@H](Cc1ccccc1)NC(=O)[C@H](CC(N)=O)NC(=O)[C@@H]1CCCN1C(=O)[C@H](CO)NC(=O)[C@H](CO)NC(=O)[C@H](Cc1c[nH]cn1)NC(=O)[C@H](CCCNC(=N)N)NC(=O)[C@H](CC(C)C)NC(=O)[C@H](Cc1ccccc1)NC(=O)[C@H](CO)NC(=O)[C@H](C)NC(=O)[C@H](CC(C)C)NC(=O)[C@H](CCCNC(=N)N)NC(=O)[C@H](CCC(N)=O)NC(=O)[C@@H](NC(=O)[C@H](C)NC(=O)[C@@H]1CSSC[C@H](NC(=O)[C@@H](N)CCCCNC(=O)COCCOCCNC(=O)CC[C@H](NC(=O)CCCCCCCCCCCCCCCCCCC(=O)O)C(=O)O)C(=O)N[C@@H](CC(N)=O)C(=O)N[C@@H]([C@@H](C)O)C(=O)N[C@@H](C)C(=O)N[C@@H]([C@@H](C)O)C(=O)N1)[C@@H](C)O)C(=O)N1CCC[C@H]1C(=O)N[C@@H](CO)C(=O)N[C@@H](CO)C(=O)N[C@H](C(=O)N1CCC[C@H]1C(=O)N[C@H](C(=O)NCC(=O)N[C@@H](CO)C(=O)N[C@@H](CC(N)=O)C(=O)N[C@H](C(=O)N[C@@H](Cc1ccc(O)cc1)C(N)=O)[C@@H](C)O)C(C)C)[C@@H](C)O [Example 73] (H-K([AEEA-γGlu-C20 diacid])CNTATCATQRLASFLRHSSPNFGAIPSSTPVGSNTY-NH2; disulfide 2-7 (inferred)) | 12 | ≥ 200 | ≥ 200 | ≥ 200 | ≥ 200 | ≥ 200 | ≥ 200 | ≥ 200 | 172 (≈ 771 µg/mL) | 7.30 |  |  |  |  |  |  |  | 
2 | CC[C@H](C)[C@H](NC(=O)[C@H](C)NC(=O)CNC(=O)[C@H](Cc1ccccc1)NC(=O)[C@H](CC(N)=O)NC(=O)[C@@H]1CCCN1C(=O)[C@H](CO)NC(=O)[C@H](CO)NC(=O)[C@H](Cc1c[nH]cn1)NC(=O)[C@H](CCCNC(=N)N)NC(=O)[C@H](CC(C)C)NC(=O)[C@H](Cc1ccccc1)NC(=O)[C@H](CCCNC(=N)N)NC(=O)[C@H](C)NC(=O)[C@H](CC(C)C)NC(=O)[C@H](CCCNC(=N)N)NC(=O)[C@H](CCC(N)=O)NC(=O)[C@@H](NC(=O)[C@H](C)NC(=O)[C@@H]1CSSC[C@H](NC(=O)[C@@H](N)CCCCNC(=O)CC[C@H](NC(=O)CCCCCCCCCCCCCCCCCCC(=O)O)C(=O)O)C(=O)N[C@@H](CC(N)=O)C(=O)N[C@@H]([C@@H](C)O)C(=O)N[C@@H](C)C(=O)N[C@@H]([C@@H](C)O)C(=O)N1)[C@@H](C)O)C(=O)N1CCC[C@H]1C(=O)N[C@@H](CO)C(=O)N[C@@H](CO)C(=O)N[C@H](C(=O)N1CCC[C@H]1C(=O)N[C@H](C(=O)NCC(=O)N[C@@H](CO)C(=O)N[C@@H](CC(N)=O)C(=O)N[C@H](C(=O)N[C@@H](Cc1ccc(O)cc1)C(N)=O)[C@@H](C)O)C(C)C)[C@@H](C)O [Example 63] (H-K([γGlu-C20 diacid])CNTATCATQRLARFLRHSSPNFGAIPSSTPVGSNTY-NH2; disulfide 2-7 (inferred); N-terminus assumed) | 45 |  |  |  |  |  |  |  |  | 6.91 | ≥ 200 | ≥ 200 | ≥ 200 | ≥ 200 | ≥ 200 | ≥ 200 | ≥ 200 | ≥ 200
3 | CC[C@H](C)[C@H](NC(=O)[C@H](C)NC(=O)CNC(=O)[C@H](Cc1ccccc1)NC(=O)[C@H](CC(N)=O)NC(=O)[C@@H]1CCCN1C(=O)[C@H](CO)NC(=O)[C@H](CO)NC(=O)[C@H](Cc1c[nH]cn1)NC(=O)[C@H](CCCNC(=N)N)NC(=O)[C@H](CC(C)C)NC(=O)[C@H](Cc1ccccc1)NC(=O)[C@H](Cc1c[nH]cn1)NC(=O)[C@H](C)NC(=O)[C@H](CC(C)C)NC(=O)[C@H](CCCNC(=N)N)NC(=O)[C@H](CCC(N)=O)NC(=O)[C@@H](NC(=O)[C@H](C)NC(=O)[C@@H]1CSSC[C@H](NC(=O)[C@@H](N)CCCCNC(=O)CC[C@H](NC(=O)CCCCCCCCCCCCCCCCCCC(=O)O)C(=O)O)C(=O)N[C@@H](CC(N)=O)C(=O)N[C@@H]([C@@H](C)O)C(=O)N[C@@H](C)C(=O)N[C@@H]([C@@H](C)O)C(=O)N1)[C@@H](C)O)C(=O)N1CCC[C@H]1C(=O)N[C@@H](CO)C(=O)N[C@@H](CO)C(=O)N[C@H](C(=O)N[C@@H](CC(N)=O)C(=O)N[C@H](C(=O)NCC(=O)N[C@@H](CO)C(=O)N[C@@H](CC(N)=O)C(=O)N[C@H](C(=O)N[C@@H](Cc1ccc(O)cc1)C(N)=O)[C@@H](C)O)C(C)C)[C@@H](C)O [Example 70] (H-K([γGlu-C20 diacid])CNTATCATQRLAHFLRHSSPNFGAIPSSTNVGSNTY-NH2; disulfide 2-7; N-terminus assumed) | 7 |  |  |  |  |  |  |  |  | 7.47 | ≥ 200 | ≥ 200 | ≥ 200 | ≥ 200 | ≥ 200 | ≥ 200 | ≥ 200 | ≥ 200
